Assay results from patent publication US20220062240A1, “METHODS OF TREATING CANCER USING A CLK INHIBITOR” (BioSplice Therapeutics, Inc., priority 2018, published 2022).
Where two headings read alike, the source gives them in different places.

Experiments:
[1] = system: liver cancer (3 cell lines); assay: CellTiter-Glo Viability Assay, liver cancer; assay type: cell-based; details: Homo sapiens, inhibition of cancer cell proliferation
[2] = system: haematopoietic & lymphoid tumors (13 cell lines); assay: CellTiter-Glo Viability Assay, haematopoietic & lymphoid tumors; assay type: cell-based; details: Homo sapiens, inhibition of cancer cell proliferation
[3] = system: colorectal cancer (6 cell lines); assay: CellTiter-Glo Viability Assay, colorectal cancer; assay type: cell-based; details: Homo sapiens, inhibition of cancer cell proliferation
[4] = system: pancreatic cancer (8 cell lines); assay: CellTiter-Glo Viability Assay, pancreatic cancer; assay type: cell-based; details: Homo sapiens, inhibition of cancer cell proliferation
CLK2 = molecular target: T1, CLK2 (Homo sapiens, UniProt P49760); assay: CLK2 kinase activity assay (Z-lyte, Ser/Thr 6 peptide); assay type: biochemical; details: recombinant CLK2 kinase, ATP 60 μM; read-out: EC50
T1 construct: purchased Thermo Fisher (Life Technologies), Z'-LYTE Kinase Assay Kits
Protocol: All reactions were performed in duplicate.

ZR-75-1 = assay: CellTiter-Glo Viability Assay, breast cancer; assay type: cell-based; details: Homo sapiens, 96 h; ZR-75-1, breast cancer, four days; read-out: EC50
CAMA1 = assay: CellTiter-Glo Viability Assay, breast cancer; assay type: cell-based; details: Homo sapiens, CAMA-1, 96 h; CAMA1, breast cancer, four days; read-out: EC50
MCF7 = assay: CellTiter-Glo Viability Assay, breast cancer; assay type: cell-based; details: Homo sapiens, 96 h; MCF7, breast cancer, four days; read-out: EC50
T47D = assay: CellTiter-Glo Viability Assay, breast cancer; assay type: cell-based; details: Homo sapiens, 96 h, breast cancer, four days, read-out: EC50
HCC1599 = assay: CellTiter-Glo Viability Assay, breast cancer; assay type: cell-based; details: Homo sapiens, 96 h; HCC1599, breast cancer, four days; read-out: EC50
MDA-MB-231-Luc = assay: CellTiter-Glo Viability Assay, breast cancer; assay type: cell-based; details: Homo sapiens, 96 h; MDA-MB-231-Luc, breast cancer, four days; read-out: EC50
BT-549 = assay: CellTiter-Glo Viability Assay, breast cancer; assay type: cell-based; details: Homo sapiens, 96 h; BT-549, breast cancer, four days; read-out: EC50
DU4475 = assay: CellTiter-Glo Viability Assay, breast cancer; assay type: cell-based; details: Homo sapiens, DU-4475, 96 h; DU4475, breast cancer, four days; read-out: EC50
[5] = system: ovarian cancer (4 cell lines); assay: CellTiter-Glo Viability Assay, ovarian cancer; assay type: cell-based; details: Homo sapiens, inhibition of cancer cell proliferation
CLK3 = CLK3 (Homo sapiens, UniProt P49761); assay: CLK3 kinase activity assay (Z-lyte, Ser/Thr 18 peptide)
[6] = system: lung cancer (4 cell lines); assay: CellTiter-Glo Viability Assay, lung cancer; assay type: cell-based; details: Homo sapiens, inhibition of cancer cell proliferation
[7] = system: prostate cancer (5 cell lines); assay: CellTiter-Glo Viability Assay, prostate cancer; assay type: cell-based; details: Homo sapiens
all 50 cell lines = assay: CellTiter-Glo Viability Assay, average across all cell lines; assay type: cell-based; details: Homo sapiens; across all 50 cell lines; read-out: average EC50 for inhibition of cancer cell proliferation
Outline: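 Cells were plated at 300-3,000 per well in their own media, then treated with compound in duplicate, with DMSO wells as controls. After four days at 37° C and 5% CO2, CellTiter-Glo was added, and luminescence was read. EC50s were fitted.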

T1 sequence (P49760 whole entry): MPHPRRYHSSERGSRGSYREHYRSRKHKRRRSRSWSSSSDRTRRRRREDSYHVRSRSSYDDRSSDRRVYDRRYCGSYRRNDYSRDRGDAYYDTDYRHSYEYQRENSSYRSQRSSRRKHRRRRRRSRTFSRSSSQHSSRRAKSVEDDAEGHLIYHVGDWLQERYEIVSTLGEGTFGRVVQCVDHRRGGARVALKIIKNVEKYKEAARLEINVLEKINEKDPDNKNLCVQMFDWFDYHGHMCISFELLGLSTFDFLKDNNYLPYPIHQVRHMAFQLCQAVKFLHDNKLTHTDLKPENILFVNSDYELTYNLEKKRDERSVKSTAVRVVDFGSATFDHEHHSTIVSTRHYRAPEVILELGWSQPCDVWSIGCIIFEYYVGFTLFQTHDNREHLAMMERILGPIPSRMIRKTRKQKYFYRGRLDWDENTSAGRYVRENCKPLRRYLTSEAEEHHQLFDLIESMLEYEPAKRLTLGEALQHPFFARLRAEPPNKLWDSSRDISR
Chain of CLK3 (P49761 whole entry): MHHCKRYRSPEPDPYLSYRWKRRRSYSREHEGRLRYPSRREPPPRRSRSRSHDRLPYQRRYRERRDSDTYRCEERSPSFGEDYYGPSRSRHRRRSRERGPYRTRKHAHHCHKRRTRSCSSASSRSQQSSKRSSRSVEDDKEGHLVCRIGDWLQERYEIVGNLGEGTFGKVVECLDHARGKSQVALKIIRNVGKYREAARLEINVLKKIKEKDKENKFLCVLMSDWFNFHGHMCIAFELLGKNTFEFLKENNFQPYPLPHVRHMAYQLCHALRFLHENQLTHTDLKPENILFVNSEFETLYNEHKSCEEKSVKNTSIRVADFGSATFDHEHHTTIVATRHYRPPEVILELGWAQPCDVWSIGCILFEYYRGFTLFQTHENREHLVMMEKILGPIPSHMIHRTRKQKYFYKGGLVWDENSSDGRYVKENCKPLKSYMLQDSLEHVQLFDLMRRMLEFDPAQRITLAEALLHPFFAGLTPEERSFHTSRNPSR

For `[2H]c1c([2H])c([2H])c(/C=C/C(=O)Nc2cc3cc(-c4cncn4C)ccc3cn2)c([2H])c1[2H]` [Compound 81], which EC50 ([1]; SNU-398, SNU398 cell line, read-out: Liver cancer, EC50 SNU398) is on record?
Its EC50 is 112 nM.

And the EC50 ([1]; HEPG2 cell line, read-out: Liver cancer, EC50 HEPG2)?
Its EC50 is 470 nM.

What about the EC50 ([1]; PLC/PRF/5 cell line, read-out: Liver cancer, EC50 PLC/PRF/5) of the same compound?
The EC50 was 466 nM.

What about the EC50 ([2]; DND41, DND-41 cell line, read-out: Haematopoietic & Lymphoid tumors, EC50 (μM) DND-41) of the same compound?
The EC50 was 0.213 µM.

What about the EC50 ([2]; MV4-11, MV-4-11 cell line, read-out: Haematopoietic & Lymphoid tumors, EC50 (μM) MV-4-11) of the same compound?
Its EC50 is 0.025 µM.

And the EC50 ([2]; Rec1, REC-1 cell line, read-out: Haematopoietic & Lymphoid tumors, EC50 (μM) REC-1)?
The EC50 was 0.106 µM.

And the EC50 ([2]; SU-DHL-4, SUDHL4 cell line, read-out: Haematopoietic & Lymphoid tumors, EC50 (μM) SUDHL4)?
The EC50 was 0.407 µM.

What about the EC50 ([2]; HL-60 cell line, read-out: Haematopoietic & Lymphoid tumors, EC50 (μM) HL-60) of the same compound?
The EC50 was 0.235 µM.

What about the EC50 ([2]; JM1 cell line, read-out: Haematopoietic & Lymphoid tumors, EC50 (μM) JM1) of the same compound?
Its EC50 is 0.12 µM.

And the EC50 ([2]; JURKAT, Clone E6-1 cell line, read-out: Haematopoietic & Lymphoid tumors, EC50 (μM) JURKAT, Clone E6-1)?
The EC50 was 0.305 µM.

And the EC50 ([2]; JeKo-1 cell line, read-out: Haematopoietic & Lymphoid tumors, EC50 (μM) JeKo-1)?
The EC50 was 0.136 µM.

And the EC50 ([2]; KASUMI-1 cell line, read-out: Haematopoietic & Lymphoid tumors, EC50 (μM) KASUMI-1)?
The EC50 was 0.206 µM.

And the EC50 ([2]; Loucy cell line, read-out: Haematopoietic & Lymphoid tumors, EC50 (μM) Loucy)?
Its EC50 is 0.374 µM.

And the EC50 ([2]; MOLT-4 cell line, read-out: Haematopoietic & Lymphoid tumors, EC50 (μM) MOLT-4)?
The EC50 was 0.186 µM.

And the EC50 ([2]; TF-1 cell line, read-out: Haematopoietic & Lymphoid tumors, EC50 (μM) TF-1)?
The EC50 was 0.391 µM.

And the EC50 ([2]; TOLEDO cell line, read-out: Haematopoietic & Lymphoid tumors, EC50 (μM) TOLEDO)?
Its EC50 is 0.13 µM.

What about the EC50 ([3]; HCT-116, HCT116 cell line, read-out: Colorectal cancer, EC50 (μM) HCT116) of the same compound?
Its EC50 is 0.147 µM.

What about the EC50 ([3]; HT-29, HT29 cell line, read-out: Colorectal cancer, EC50 (μM) HT29) of the same compound?
Its EC50 is 0.433 µM.

What about the EC50 ([3]; SW-620, SW620 cell line, read-out: Colorectal cancer, EC50 (μM) SW620) of the same compound?
Its EC50 is 0.135 µM.

And the EC50 ([3]; DLD-1 cell line, read-out: Colorectal cancer, EC50 (μM) DLD-1)?
The EC50 was 0.199 µM.

And the EC50 ([3]; SW48 cell line, read-out: Colorectal cancer, EC50 (μM) SW48)?
Its EC50 is 0.12 µM.

And the EC50 ([3]; SW480 cell line, read-out: Colorectal cancer, EC50 (μM) SW480)?
The EC50 was 0.132 µM.

And the EC50 ([4]; BXPC-3, BxPC3 cell line, read-out: Pancreatic cancer, EC50 BxPC3)?
The EC50 was 848 nM.

And the EC50 ([4]; CAPAN-1, Capan1 cell line, read-out: Pancreatic cancer, EC50 Capan1)?
The EC50 was 372 nM.

What about the EC50 ([4]; Capan-2, Capan2 cell line, read-out: Pancreatic cancer, EC50 Capan2) of the same compound?
The EC50 was 620 nM.

And the EC50 ([4]; MIA PaCa-2 cell line, read-out: Pancreatic cancer, EC50 MIA PaCa-2)?
The EC50 was 261 nM.

And the EC50 ([4]; PANC 05.04 cell line, read-out: Pancreatic cancer, EC50 PANC 05.04)?
Its EC50 is 564 nM.

And the EC50 ([4]; PANC-1 cell line, read-out: Pancreatic cancer, EC50 PANC-1)?
The EC50 was 600 nM.

And the EC50 ([4]; UPAFII cell line, read-out: Pancreatic cancer, EC50 UPAFII)?
The EC50 was 348 nM.

And the EC50 (CLK2)?
The EC50 was 3.4 nM.

And the EC50 (ZR-75-1)?
Its EC50 is 441 nM.

What about the EC50 (CAMA1) of the same compound?
Its EC50 is 429 nM.

And the EC50 (MCF7)?
Its EC50 is 505 nM.

What about the EC50 (T47D) of the same compound?
The EC50 was 471 nM.

What about the EC50 (HCC1599) of the same compound?
Its EC50 is 165 nM.

What about the EC50 (MDA-MB-231-Luc) of the same compound?
Its EC50 is 338 nM.

And the EC50 (BT-549)?
The EC50 was 273 nM.

What about the EC50 (DU4475) of the same compound?
Its EC50 is 152 nM.

And the EC50 ([5]; PA-1, PA1 cell line, read-out: Ovarian cancer, EC50 (μM) PA1)?
The EC50 was 0.218 µM.

What about the EC50 ([5]; TOV112D, TOV-112D cell line, read-out: Ovarian cancer, EC50 (μM) TOV-112D) of the same compound?
The EC50 was 0.228 µM.

What about the EC50 ([5]; OV-90 cell line, read-out: Ovarian cancer, EC50 (μM) OV-90) of the same compound?
Its EC50 is 0.838 µM.

And the EC50 ([5]; OVCAR-3 cell line, read-out: Ovarian cancer, EC50 (μM) OVCAR-3)?
Its EC50 is 0.315 µM.

And the EC50 (CLK3)?
Its EC50 is 15.4 nM.

And the EC50 ([6]; A-427, A427 cell line, read-out: Lung cancer, EC50 (μM) A427)?
Its EC50 is 0.216 µM.

What about the EC50 ([6]; HCC78, HCC-78 cell line, read-out: Lung cancer, EC50 (μM) HCC-78) of the same compound?
The EC50 was 0.396 µM.

What about the EC50 ([6]; NCI-H460 cell line, read-out: Lung cancer, EC50 (μM) NCI-H460) of the same compound?
The EC50 was 0.329 µM.

And the EC50 ([6]; NCI-H522 cell line, read-out: Lung cancer, EC50 (μM) NCI-H522)?
Its EC50 is 0.216 µM.

And the EC50 ([7]; DU-145, read-out: Prostate cancer EC50 Du-145)?
Its EC50 is 429 nM.

What about the EC50 ([7]; PC-3, PC3 cell line, inhibition of cancer cell proliferation, read-out: Prostate cancer EC50 PC3) of the same compound?
The EC50 was 287 nM.

What about the EC50 ([7]; 22Rv1 cell line, inhibition of cancer cell proliferation, read-out: Prostate cancer EC50 22Rv1) of the same compound?
Its EC50 is 329 nM.

And the EC50 ([7]; LNCap clone FGC cell line, inhibition of cancer cell proliferation, read-out: Prostate cancer EC50 LNCap clone FGC)?
The EC50 was 444 nM.

And the EC50 ([7]; VCaP (Sigma) cell line, inhibition of cancer cell proliferation, read-out: Prostate cancer EC50 VCaP (Sigma))?
The EC50 was 497 nM.

And the EC50 (all 50 cell lines)?
The EC50 was 324 nM.
